Results as given in patent publication US20230272009A1, “Peptide, Peptide Salt, Pharmaceutical Composition and Biological Tissue Calcification Inhibitor” (Hiroshima University, priority 2020, published 2023).
Square brackets hold non-standard residues; d marks the D form. Ends that are not written are not given here. pS = N[C@@H](COP(=O)(O)O)C(=O)O

Legend:
[1] = system: mouse osteoblast strain MC3T3-E1; assay: Examination of in vitro calcification inhibitory activity (von Kossa staining of matrix calcification); format: cell-based; conditions: relative to Comparative Example 2 set at 100, MC3T3-E1, 3 mM βGP, 24 hours
Description: A mouse osteoblast strain MC3T3-E1 was cultured in a bone differentiation medium (α MEM (Eagle’s minimum essential medium, alpha modification) + 50 µg/mL ascorbic acid, 10% fetal calf serum) to form osteoid-like nodules. In order to induce calcification, 3 mM β-glycerophosphoric acid (hereinafter, “βGP”) was added together with a test substance to the medium. The strain was cultured for 24 hours after the addition of the test substance, and cells were washed with PBS, immobilized with 10% neutral buffered formalin, and then subjected to von Kossa staining. The matrix calcification was evaluated by measurement of calcium spots stained with von Kossa in the extracellular matrices of alkaline phosphatase (ALP)-stained positive cells, which were osteoblastic markers, with a stereoscopic microscope.

ddY mice = assay: Evaluation of safety, influence on osteogenesis (4-week continuous intravenous administration); format: in vivo, mouse; conditions: 4 weeks
Description: Thus, toxicity, particularly an influence on osteogenesis was examined using Comparative Example 2, as described below.
Catheters were indwelled in the jugular veins of 6-week-old ddY mice, and Comparative Example 2 was continuously administered at a high dose (1 mg/mouse/day) or low dose (0.1 mg/mouse/day) for 4 weeks using an osmotic pump (manufactured by Alzert). The low dose is 10 or more times as much as an effective drug efficacy concentration. Evaluation items were set to a body weight, the amount of intake of a food and drink, blood biochemistry (including calcium and phosphoric acid), the weights of principal organs, and histopathology. Moreover, bone structures were evaluated by µCT, and bone strengths were evaluated in a three-point bending test.

[2] = Evaluation of stability: residual rate in PBS by HPLC; format: physicochemical; conditions: 37° C., 7 days or 14 days, HPLC peak area, sample before use set at 100
Description: (§1) The amount of 1/20 to 1/25 of Comparative Example 2 or Example 5 (each 100 mM) was added to PBS or C57BL/6 mouse serum, and incubated at 37° C. for 7 days or 14 days. In measurement using the serum, 4 M perchloric acid (PCA) of which the amount was equal to the amount of a sample was added, and the resultant was diluted to 2-fold with MQ water and left to stand on ice for 5 minutes. The supernatant obtained by centrifugation for 2 minutes was subjected to HPLC (ODS column and 0.1% TFA/ acetonitrile). The residual rates of the test substances were calculated in a case in which the peak area of a sample adjusted before use was set at 100.

thoracic aorta = assay: Calcification of cultured thoracic aorta rings under high phosphate load (headed 'in vivo calcification inhibitory activity'); format: cell-based, C57BL/6 mouse; conditions: for Calcification of thoracic aorta tissue (alizarin red staining): versus PBS solvent
Description: The thoracic aorta was harvested from a C57BL/6 mouse (10-week-old male), and then cut into ring-shaped portions (2 to 3 mm), which were cultured in 10% FCS DMEM (Dulbecco’s Moodified Eagle’s Medium, high glucose). From the next day, the peptides were added, and the resultants were loaded together with phosphoric acid having a high concentration (sodium phosphate, final concentration of 3 mM), and cultured for 10 days. The tissues immobilized with PFA were stained with alizarin red, and the vessel walls were incised and opened, and observed with a stereoscopic microscope. Moreover, the contents of calcium in liquid extracts obtained by decalcifying the vessels, cultured in a similar manner, with 10% formic acid for 24 hours were measured using a calcium quantification kit (Calcium C-test Wako, manufactured by Wako Pure Chemical Industries, Ltd.).

caALK2Q207D mice = assay: Evaluation of drug efficacy in FOP model (µCT of leg region); format: in vivo; conditions: Ad-Cre intramuscular, intraperitoneal 0.03 mg/mouse/day, day 6
Description: Cre recombinase recombinant adenovirus (Ad-Cre, manufactured by Vector Biolabs) was intramuscularly administered (2 × 10^7 pfu) to the crural muscles (triceps muscles) of 7-day-old caALK2Q207D mice (Paul B Yu and the 14 others, “BMP type I receptor inhibition reduces heterotopic ossification” Nat Med, 2008, 14(12), 1363-1369). Next day, Example 5 was intraperitoneally administered (0.03 mg/mouse/day). On day 6, the leg region was immobilized with 4% para-formaldehyde PBS, and µCT images were acquired.

[3] = system: Enpp1 mutated mice (C57BL/6J-Enpp1asj/asj); assay: Evaluation of drug efficacy in GACI model (aortic calcification score); format: in vivo, mouse; conditions: high phosphorus diet, continuous intravenous administration for 2 weeks by osmotic pump
Description: The biallelic mutation of an Enpp1 gene is observed at 75% of GACI. Thus, the drug efficacy of the peptide was examined using Enpp1 mutated mice. Fertilized eggs from the Enpp1 mutated mice (C57BL/6J-Enpp1^asj/asj) were transplanted into ICR mice, and bred with a high phosphorus diet (AIN-93G-based, 0.4% Ca, 0.85% P, 0.04% Mg) immediately after deliveries. Male Enpp1^asj mice were weaned from the mothers 4 weeks after the births, and fed with a high phosphorus diet during an experimental period. […] A catheter was indwelled in the right cervical vein 6 to 7 weeks after the birth, and Example 5 was continuously administered for 2 weeks by an osmotic pump (manufactured by Altez). The thoracic (ventral) aorta was harvested, then immobilized with 4% para-formaldehyde PBS, washed, and then stained with alizarin red 0.5% KOH. The tissue was washed, and then preserved in 70% EtOH. For the obtained tissue, the calcification of the alizarin red-positive region of the thoracic aorta was scored (maximum value of 3) under the stereoscopic microscope.

[4] = Evaluation of stability: residual rate in mouse serum by HPLC; format: in vitro ADME; conditions: C57BL/6 mouse serum, 37° C., 7 days or 14 days
Description: as §1

[5] = aorta rings, sodium phosphate 3 mM, cultured 10 days

**Q.** Which “Calcification inhibitory activity (relative)” value [1] does the source give for “SSESSESGSSSESD (SEQ ID NO:13) (SSESSESGSS[pS]E[pS]D) [Example 4]” here?
**A.** 110<

**Q.** Which results are given for “RDDSSESSDSGSSSESDGD (SEQ ID NO:11) (RDDSSESSDSG[pS]S[pS]E[pS]DGD) [Comparative Example 2, reference compound]”?
**A.** Abnormal findings in body weight, intake of food and drink, blood biochemistry, weights of principal organs, histopathology (ddY mice; 1 mg/mouse/day or 0.1 mg/mouse/day continuous intravenous): Any abnormal findings were not observed; Bone volume (BV), bone mineral content (BMC), bone mineral density (BMD), bone strength (maximum load) versus PBS (ddY mice; high and low doses, µCT and three-point bending test): no significant differences; Calcification inhibitory activity (relative) [1]: 100; Residual rate in PBS [2]: decreased over time; Calcification of thoracic aorta tissue (alizarin red staining) (thoracic aorta; [5]): calcification was inhibited

**Q.** With “SSESSESGSSSESD (SEQ ID NO:9) (SSESSESG[pS]S[pS]E[pS]D) [Example 3]” as the substance, how does the “Calcification inhibitory activity (relative)” value [1] read?
**A.** 200<

**Q.** Which “Calcification inhibitory activity (relative)” value [1] does the source give for “SSESSDSGSSSESD (SEQ ID NO:8) (SSESSDSG[pS]S[pS]E[pS]D) [Example 2]” here?
**A.** 100

**Q.** For “RDDSSESSDSGSSSESDGD (SEQ ID NO:10) (ASARM peptide) [Comparative Example 1, reference compound]”, which “Calcification inhibitory activity (relative)” value [1] is on record?
**A.** 0

**Q.** Which “Calcification inhibitory activity (relative)” value [1] does the source give for “DDSSESSDSGSSSESD (SEQ ID NO:12) (DDSSESSDSG[pS]S[pS]E[pS]D) [Example 1]” here?
**A.** 100

**Q.** Which results are given for “Ac-SSESSESGSSSESD(C)-NH2 (N-Ac/chloroacetyl thioether cyclised, added C-terminal Cys amide; Phosphopeptide; MOD_RES (9)..(9) PHOSPHORYLATION; MOD_RES (11)..(11) PHOSPHORYLATION; MOD_RES (13)..(13) PHOSPHORYLATION) [Example 5]”?
**A.** Calcification inhibitory activity (relative) [1]: 500-1000<; Calcification in leg region (µCT images) (caALK2Q207D mice): no calcification was confirmed; Vascular calcification (calcification score of thoracic aorta, maximum value of 3) [3]: inhibited; Residual rate in PBS [2]: not decreased; Calcium content per protein (thoracic aorta; aorta rings loaded with phosphoric acid (Pi), decalcified with 10% formic acid, compared with Comparative Example 2): less than that in Comparative Example 2; Calcification inhibitory effect compared with Comparative Example 2 (alizarin red staining) (thoracic aorta; [5]): superior to that in Comparative Example 2; Calcification of thoracic aorta tissue (alizarin red staining) (thoracic aorta; [5]): calcification was inhibited; Residual rate in mouse serum [4]: inhibited in comparison with Comparative Example 2
